Experimental data reported in patent publication US12514834B2, “Pharmaceutical composition for treating and/or preventing renal cystic ciliopathy” (Kyoto University, priority 2022, dated 2026).

How the values were obtained:
[1] = tested on: cysts of collecting duct organoids from PKD1 knockout iPS cells (1383D2 cell line); assay: Cyst enlargement inhibition in cysts from artificial collecting duct organoids induced from PKD1 knockout iPS cells; assay type: cell-based, human; details: 0.1 μM compound, with 2.5 μM AVP, 3 days of culturing, vs 0.1% DMSO; FIGS. 1-5
Experimental: Using PKD1 knockout iPS cells of the 1383D2 cell line, artificial collecting duct organoids with cystic structures were induced by the above method. The following protocol was used to examine compounds that inhibit cyst enlargement. • 1. Organoids in which cyst formation was occurring were collected in tubes. • 2. Medium was removed and 2 ml of Cell Recovery Solution was added. (4° C., 30 minutes) • 3. Gel was dissolved by gentle pipetting with a P-1000 pipetteman and then centrifuged. (500 g, 2 minutes) • 4. After removing the supernatant from 3 and adding 5 ml of FBS-containing medium (STO medium), cysts were separated from the organoids by pipetting. • 5. Using a stereomicroscope, cysts were collected in 15 ml tubes. • 6. The supernatant was removed, and then 2 ml of Accutase was added to perform treatment at 37° C. for 5 minutes. • 7. Cells were dissociated down to single cells by pipetting with a P-1000 pipetteman. • 8. After filtering, cells were counted. • 9. After cell counting, a cell suspension containing the required number of cells was transferred to a tube, and then 5 ml of FBS-containing medium (STO medium) was added to stop the Accutase reaction. To seed at 5×10^4 cells/well, the amount of the cell suspension required was calculated. • 10. Pellets were prepared by centrifugation (200 g, 5 minutes). • 11. The supernatant was thoroughly removed, and then DMEM/F12+B27 w/o V.A. medium (10% Afamin/Wnt3a CM, 200 ng/ml R-Spondin 1, 200 ng/ml FGF1, 10 μM Forskolin, 2.5 μM AVP, 10 μM Y27632) was added for suspension. To seed at 5×10^4 cells/well, the amount of medium required was calculated. • 12. The cell suspension from 11 was seeded at 5×10^4 cells/well into pre-prepared 50% Matrigel plates. The cell suspension was added slowly to avoid disrupting the Matrigel. • 13. […] Nine (9) locations inside the wells were photographed using a 4× objective lens under a fluorescence microscope (Keyence, BZ-X700), the cyst area was measured using a BZ-X Analyzer, and then the average value was calculated.
Cyst enlargement-inhibiting compounds to be evaluated in step 14 were added. […]

[2] = tested on: Pkd1flox/flox:Ksp-Cre mice (ADPKD model); assay: ATRA treatment of ADPKD model mice; assay type: in vivo, mouse
Description: Pkd1^flox/flox:Ksp-cre mice, which are ADPKD model mice, develop numerous cysts progressively after birth and die at approximately 14 days of age due to renal failure.
Mouse lineages were maintained with heterozygous Pkd1^flox/+:Ksp-Cre mice, and Pkd1^flox/flox:Ksp-cre mice were generated by mating mice of the same lineage.
On postnatal day 3, Pkd1^flox/flox:Ksp-cre mice (Cystic) and Pkd1^flox/+:Ksp-Cre mice (Non-cystic) were intraperitoneally administered with ATRA (Sigma, #R2625) dissolved in sunflower oil containing 2% DMSO (solvent) to achieve a dose of 10 mg/kg. A group of mice administered with only the solvent intraperitoneally was served as a negative control. Mice were euthanized on postnatal day 9, and renal tissues and blood samples were collected.
BUN in mouse serum was measured using an UN-L kit (Serotec, #A667-00).
Kidneys were fixed in 4% paraformaldehyde solution, and 4 μm-thick paraffin sections were prepared. After deparaffinization, HE staining was performed and renal tissues were photographed under an optical microscope. Cystic index was calculated by total cystic area/total renal tissue area×100 using image analysis and measurement software (WinROOF, Mitani Corporation).
Therapeutic effects of ATRA on ADPKD model mice Since ATRA has already been used as a therapeutic agent for Acute Promyelocytic Leukemia (APL) patients, the efficacy of ATRA in ADPKD model mice was examined from a drug repositioning perspective. To reflect the in vitro results of ATRA on collecting duct cyst enlargement in in vivo, Pkd1^flox/flox:Ksp-Cre mice, in which the Pkd1 allele is conditionally inactivated under expression of kidney-specific Ksp-Cre recombinase in the distal nephron segments and collecting ducts, were used. The mice develop renal failure from birth due to progressive cyst formation and die about 2 weeks after birth. Because Ksp cadherin is specifically expressed in the collecting ducts and distal tubules, cysts originating from the collecting ducts and distal tubules are formed in these ADPKD model mice. ATRA was administered at 10 mg/kg intraperitoneally to mice on postnatal day 3 (P3), and mice were then sacrificed at P9 (FIG. 12).

[3] = tested on: cyst cells from PKD1 knockout iPS cell-derived collecting duct organoids; assay: Microarray comparison of gene expression in cyst cells cultured with and without TTNPB (GSEA, heat maps); assay type: cell-based, human; details: 0.1 μM TTNPB, cysts on day 5 of culture
Experimental: For comprehensive profiling of transcripts encoding human proteins, microarray analysis was performed at Filgen using the Human 8×60K LncRNA expression array (ArrayStar). Labeling of samples and array hybridization were performed according to the Agilent One-Color Microarray-Based Gene Expression Analysis protocol (Agilent Technology). Data were collected using Agilent's Feature Extraction software. Raw signal intensities were normalized using the quantile normalization method of GeneSpring GX v12.1.
To clarify the mechanism of action of TTNPB, gene expression in cyst cells cultured with and without TTNPB was compared by microarray (FIGS. 6 and 7).

[4] = 10 mg/kg intraperitoneally on P3, P9, FIG. 14

Structure (SMILES) | cyst size (cyst area) [1] | cyst formation on the cortical side (HE-stained renal tissue sections) [2, 4] | kidney size (HE-stained renal tissue sections) [2, 4] | ratio of kidney weights to body weight (2KW/BW) ([2]; 10 mg/kg intraperitoneally on P3, P9, vs solvent, FIG. 13) | cystic index (proportion of the area occupied by cysts in the renal tissue) ([2]; 10 mg/kg intraperitoneally on P3, P9, vs solvent, FIG. 15) | body weight ([2]; 10 mg/kg intraperitoneally on P3, sacrificed at P9, FIG. 12) | BUN (blood urea nitrogen) levels ([2]; 10 mg/kg intraperitoneally on P3, serum at P9, vs control mice treated with solvent, FIG. 16) | TGFβ signaling pathway (GSEA) ([3]; FIG. 8) | expression levels of MMP1, SLC2A1, CFTR, and HMGCR ([3]; heat map FIG. 9) | expression of cellular senescence marker genes such as CDKN2B (p15) ([3]; heat map FIG. 10)
CC1(C)CCC(C)(C)c2cc(NC(=O)c3ccc(C(=O)O)cc3)ccc21 [AM80, tamibarotene] | significantly reduced the cyst sizes |  |  |  |  |  |  |  |  | 
CC1=C(/C=C/C(C)=C/C=C/C(C)=C/C(=O)O)C(C)(C)CCC1 [ATRA, all-trans retinoic acid] | reduced the cyst sizes | tended to inhibit cyst formation on the cortical side | suppressed the increase in kidney size | significantly decreased | significantly reduced | No significant body weight loss | significantly lower |  |  | 
C/C(=C\c1ccc(C(=O)O)cc1)c1ccc2c(c1)C(C)(C)CCC2(C)C [TTNPB, 4-[(E)-2-(5,6,7,8-tetrahydro-5,5,8,8-tetramethyl-2-naphthalenyl)-1-propenyl]benzoic acid] | significant reduction in cyst size |  |  |  |  |  |  | inhibited | decreased | promotes the expression
